# Patent publication US20230278972A1, “SUBSTITUTED HALOALKYL SULFONANILIDE HERBICIDES” (FMC Corporation, priority 2020, published 2023)
# Key:
# Format in all cases: in vivo
# [1] = tested on: barnyardgrass (Echinochloa crus-galli); experiment: Test A preemergence, barnyardgrass; conditions: Preemergence; for Plant response rating, Barnyardgrass: 0 to 100 scale (0 no effect, 100 complete control); for Barnyardgrass plant response rating: visual injury on 0 to 100 scale (0 no effect, 100 complete control), approximately 10 days
# Source text: (§1) Seeds of plant species selected from barnyardgrass (Echinochloa crus-galli), kochia (Bassia scoparia), ragweed (common ragweed, Ambrosia artemisiifolia), Ryegrass, Italian (Italian ryegrass, Lolium multiflorum), Foxtail, Giant (giant foxtail, Setaria faberi), and pigweed (Amaranthus retroflexus) were planted into a blend of loam soil and sand and treated preemergence with a directed soil spray using test chemicals formulated in a non-phytotoxic solvent mixture which included a surfactant. At the same time, plants selected from these weed species and also wheat (Triticum aestivum), corn (Zea mays), blackgrass (Alopecurus myosuroides), and galium (catchweed bedstraw, Galium aparine) were planted in pots containing the same blend of loam soil and sand and treated with postemergence applications of test chemicals formulated in the same manner. Plants ranged in height from 2 to 10 cm and were in the one- to two-leaf stage for the postemergence treatment. […] A dash (-) response means no test result.
# kochia (Bassia scoparia) [2] = experiment: Test A preemergence, kochia; conditions: Preemergence; for Plant response rating, Kochia: 0 to 100 scale (0 no effect, 100 complete control); for Kochia plant response rating: visual injury on 0 to 100 scale (0 no effect, 100 complete control), approximately 10 days
# Source text: as §1
# [3] = tested on: ragweed (common ragweed, Ambrosia artemisiifolia); experiment: Test A preemergence, ragweed; conditions: Preemergence; for Plant response rating, Ragweed: 0 to 100 scale (0 no effect, 100 complete control); for Ragweed plant response rating: visual injury on 0 to 100 scale (0 no effect, 100 complete control), approximately 10 days
# Source text: as §1
# [4] = tested on: Ryegrass, Italian (Italian ryegrass, Lolium multiflorum); experiment: Test A preemergence, Ryegrass, Italian; conditions: Preemergence; for Plant response rating, Ryegrass, Italian: 0 to 100 scale (0 no effect, 100 complete control); for Ryegrass, Italian plant response rating: visual injury on 0 to 100 scale (0 no effect, 100 complete control), approximately 10 days
# Source text: as §1
# [5] = tested on: Foxtail, Giant (giant foxtail, Setaria faberi); experiment: Test A preemergence, Foxtail, Giant; conditions: Preemergence; for Plant response rating, Foxtail, Giant: 0 to 100 scale (0 no effect, 100 complete control); for Foxtail, Giant plant response rating: visual injury on 0 to 100 scale (0 no effect, 100 complete control), approximately 10 days
# Source text: as §1
# [6] = tested on: barnyardgrass (Echinochloa crus-galli); experiment: Test A postemergence, barnyardgrass; conditions: Postemergence, 0 to 100 scale (0 no effect, 100 complete control); for Barnyardgrass plant response rating: visual injury vs untreated controls after approx. 10 days
# Source text: as §1
# kochia (Bassia scoparia) [7] = experiment: Test A postemergence, kochia; conditions: Postemergence, 0 to 100 scale (0 no effect, 100 complete control); for Kochia plant response rating: visual injury vs untreated controls after approx. 10 days
# Source text: as §1
# [8] = tested on: ragweed (common ragweed, Ambrosia artemisiifolia); experiment: Test A postemergence, ragweed; conditions: Postemergence, 0 to 100 scale (0 no effect, 100 complete control); for Ragweed plant response rating: visual injury vs untreated controls after approx. 10 days
# Source text: as §1
# [9] = tested on: Ryegrass, Italian (Italian ryegrass, Lolium multiflorum); experiment: Test A postemergence, Ryegrass, Italian; conditions: Postemergence, 0 to 100 scale (0 no effect, 100 complete control); for Ryegrass, Italian plant response rating: visual injury vs untreated controls after approx. 10 days
# Source text: as §1
# [10] = tested on: Foxtail, Giant (giant foxtail, Setaria faberi); experiment: Test A postemergence, Foxtail, Giant; conditions: Postemergence, 0 to 100 scale (0 no effect, 100 complete control); for Foxtail, Giant plant response rating: visual injury vs untreated controls after approx. 10 days
# Source text: as §1
# [11] = tested on: pigweed (Amaranthus retroflexus); experiment: Test A postemergence, pigweed; conditions: Postemergence, 0 to 100 scale (0 no effect, 100 complete control); for Pigweed plant response rating: visual injury vs untreated controls after approx. 10 days
# Source text: as §1
# [12] = tested on: wheat (Triticum aestivum); experiment: Test A postemergence, wheat; conditions: Postemergence, 0 to 100 scale (0 no effect, 100 complete control); for Wheat plant response rating: visual injury vs untreated controls after approx. 10 days
# Source text: as §1
# corn (Zea mays) = experiment: Test A postemergence, corn; conditions: Postemergence, 0 to 100 scale (0 no effect, 100 complete control); for Corn plant response rating: visual injury vs untreated controls after approx. 10 days
# Source text: as §1
# [13] = tested on: blackgrass (Alopecurus myosuroides); experiment: Test A postemergence, blackgrass; conditions: Postemergence, 0 to 100 scale (0 no effect, 100 complete control); for Blackgrass plant response rating: visual injury vs untreated controls after approx. 10 days
# Source text: as §1
# [14] = tested on: galium (catchweed bedstraw, Galium aparine); experiment: Test A postemergence, galium; conditions: Postemergence, 0 to 100 scale (0 no effect, 100 complete control); for Galium plant response rating: visual injury vs untreated controls after approx. 10 days
# Source text: as §1
# [15] = 125 g ai/ha, visual injury, approx. 10 days
# [16] = 500 g ai/ha, visual injury approx. 10 days
Compound,"Plant response rating, Barnyardgrass [1, 15]",Barnyardgrass plant response rating ([1]; 500 g ai/ha),"Plant response rating, Kochia (kochia (Bassia scoparia) [2]; [15])",Kochia plant response rating (kochia (Bassia scoparia) [2]; 500 g ai/ha),"Plant response rating, Ragweed [3, 15]",Ragweed plant response rating ([3]; 500 g ai/ha),"Plant response rating, Ryegrass, Italian [4, 15]","Ryegrass, Italian plant response rating ([4]; 500 g ai/ha)","Plant response rating, Foxtail, Giant [5, 15]","Foxtail, Giant plant response rating ([5]; 500 g ai/ha)","Plant response rating, Barnyardgrass ([6]; 125 g ai/ha)","Plant response rating, Kochia (kochia (Bassia scoparia) [7]; 125 g ai/ha)","Plant response rating, Ragweed ([8]; 125 g ai/ha)","Plant response rating, Ryegrass, Italian ([9]; 125 g ai/ha)","Plant response rating, Foxtail, Giant ([10]; 125 g ai/ha)","Plant response rating, Pigweed ([11]; 125 g ai/ha)","Plant response rating, Wheat ([12]; 125 g ai/ha)","Plant response rating, Corn (corn (Zea mays); 125 g ai/ha)","Plant response rating, Blackgrass ([13]; 125 g ai/ha)","Plant response rating, Galium ([14]; 125 g ai/ha)",also measured
COC(=O)N(c1cc(N2CCC3(CCCCC3)C2=O)c(C)cc1C)S(=O)(=O)C(F)(F)F [Compound 266],0,40,0,0,0,0,0,0,0,20,0,0,0,0,0,0,0,0,30,30,"Plant response rating, Barnyardgrass [6, 16]: 20; Plant response rating, Kochia (kochia (Bassia scoparia) [7]; [16]): 10; Plant response rating, Ragweed [8, 16]: 10; Plant response rating, Ryegrass, Italian [9, 16]: 0; Plant response rating, Foxtail, Giant [10, 16]: 0; Plant response rating, Pigweed [11, 16]: 0; Plant response rating, Wheat [12, 16]: 0; Plant response rating, Corn (corn (Zea mays); [16]): 0; Plant response rating, Blackgrass [13, 16]: 0; Plant response rating, Galium [14, 16]: 90"
COC1CCCN(C(=O)c2cc(NS(=O)(=O)C(F)(F)F)c(Cl)cc2C)C1 (stereo not drawn) [Compound 146],,,,,,,,,,,40,40,60,30,20,50,50,10,0,90,"Barnyardgrass plant response rating ([1]; 125 g ai/ha): 90; Plant response rating, Barnyardgrass ([1]; 500 g ai/ha): 100; Kochia plant response rating (kochia (Bassia scoparia) [2]; 125 g ai/ha): 80; Plant response rating, Kochia (kochia (Bassia scoparia) [2]; 500 g ai/ha): 80; Ragweed plant response rating ([3]; 125 g ai/ha): 60; Plant response rating, Ragweed ([3]; 500 g ai/ha): 70; Ryegrass, Italian plant response rating ([4]; 125 g ai/ha): 90; Plant response rating, Ryegrass, Italian ([4]; 500 g ai/ha): 100; Foxtail, Giant plant response rating ([5]; 125 g ai/ha): 100; Plant response rating, Foxtail, Giant ([5]; 500 g ai/ha): 100; Barnyardgrass plant response rating ([6]; 500 g ai/ha): 80; Kochia plant response rating (kochia (Bassia scoparia) [7]; 500 g ai/ha): 50; Ragweed plant response rating ([8]; 500 g ai/ha): 90; Ryegrass, Italian plant response rating ([9]; 500 g ai/ha): 70; Foxtail, Giant plant response rating ([10]; 500 g ai/ha): 90; Pigweed plant response rating ([11]; 500 g ai/ha): 80; Wheat plant response rating ([12]; 500 g ai/ha): 60; Corn plant response rating (corn (Zea mays); 500 g ai/ha): 20; Blackgrass plant response rating ([13]; 500 g ai/ha): 20; Galium plant response rating ([14]; 500 g ai/ha): 90"
Cc1cc(C)c(C2=NOC3CCCC23)cc1NS(=O)(=O)C(F)(F)F (stereo not drawn) [Compound 164],,,,,,,,,,,80,60,70,80,0,70,60,0,0,80,"Barnyardgrass plant response rating ([1]; 125 g ai/ha): 90; Plant response rating, Barnyardgrass ([1]; 500 g ai/ha): 100; Kochia plant response rating (kochia (Bassia scoparia) [2]; 125 g ai/ha): 100; Plant response rating, Kochia (kochia (Bassia scoparia) [2]; 500 g ai/ha): 100; Ragweed plant response rating ([3]; 125 g ai/ha): 90; Plant response rating, Ragweed ([3]; 500 g ai/ha): 100; Ryegrass, Italian plant response rating ([4]; 125 g ai/ha): 80; Plant response rating, Ryegrass, Italian ([4]; 500 g ai/ha): 100; Foxtail, Giant plant response rating ([5]; 125 g ai/ha): 90; Plant response rating, Foxtail, Giant ([5]; 500 g ai/ha): 100; Barnyardgrass plant response rating ([6]; 500 g ai/ha): 90; Kochia plant response rating (kochia (Bassia scoparia) [7]; 500 g ai/ha): 90; Ragweed plant response rating ([8]; 500 g ai/ha): 90; Ryegrass, Italian plant response rating ([9]; 500 g ai/ha): 90; Foxtail, Giant plant response rating ([10]; 500 g ai/ha): 40; Pigweed plant response rating ([11]; 500 g ai/ha): 90; Wheat plant response rating ([12]; 500 g ai/ha): 70; Corn plant response rating (corn (Zea mays); 500 g ai/ha): 80; Blackgrass plant response rating ([13]; 500 g ai/ha): 40; Galium plant response rating ([14]; 500 g ai/ha): 90"
Cc1cc(Cl)c(NS(=O)(=O)C(F)(F)F)cc1C(=O)N1CCOCC1C (stereo not drawn) [Compound 245],90,100,80,80,90,90,80,100,100,100,90,40,90,70,50,80,60,20,40,90,"Plant response rating, Barnyardgrass [6, 16]: 90; Plant response rating, Kochia (kochia (Bassia scoparia) [7]; [16]): 60; Plant response rating, Ragweed [8, 16]: 90; Plant response rating, Ryegrass, Italian [9, 16]: 80; Plant response rating, Foxtail, Giant [10, 16]: 90; Plant response rating, Pigweed [11, 16]: 90; Plant response rating, Wheat [12, 16]: 60; Plant response rating, Corn (corn (Zea mays); [16]): 60; Plant response rating, Blackgrass [13, 16]: 60; Plant response rating, Galium [14, 16]: 90"
